Laboratory results from patent US20200038393A1, “APOMORPHINE PLUS BUSPIRONE COMBINATION FOR MEMORY REVIVAL” (priority 2018, published 2020).

Key:
[1] = Conditioned place preference (CPP) test for addictive/reinforcing effects; format: in vivo, rats
Excerpt: Apparatus for Conditioned Place Preference
A three compartment conditioned place preference (CPP) apparatus with an unbiased design was used to monitor drug-induced reinforcement. The apparatus was made up of transparent plastic Perspex. The compartments were separated by sliding guillotine doors.
The end (preference) compartments (26×26×26 cm each) provided distinct contexts, with one compartment having black horizontal stripes on side walls, the other compartment had vertical black stripes. […] The experiment was conducted in three distinct phases: pre-conditioning, conditioning and post-conditioning.
An animal introduced in the CPP apparatus from the middle compartment and guillotine doors were raised to open. The animal was allowed to explore the entire apparatus for 10 min. Time spent in each compartment was recorded.
(§1) This phase started one day after pre-conditioning phase, animals were randomly assigned to six groups, each containing six animals: (i) buspirone (0 mg/kg)-saline, (ii) buspirone (0 mg/kg)-[…], (iii) buspirone (1 mg/kg)-saline, (iv) buspirone (1 mg/kg)-apomorphine, (v) buspirone (2 mg/kg)-saline and (vi) buspirone (2 mg/kg)-apomorphine injected animals. Over next 12 days (day 1 to day 12) animals went through conditioning (one session per day) in which they were confined to either the horizontal or vertical stripe compartment by raising the respective guillotine door. On day 1, 3, 5, 7, 9 and 11 animals of all groups were injected with saline (1 ml/kg) and placed immediately in the assigned ‘Non-Drug paired’ compartment for 30 min. After which the animals were kept back in their home cages. On every other day, i.e. day 2, 4, 6, 8, 10, and 12 control and test animals were injected with saline, buspirone and/or apomorphine as assigned above. Immediately after injections, animals were placed in the ‘Drug paired’ compartment for 30 min. The animals picked from the drug paired compartment were placed back in their home cages.
The test was carried out on day 13, 24 hr post last conditioning session, in a drug free state. Each animal was tested only once. As in the pre-conditioning phase, the guillotine doors were removed and rat was given access to the entire apparatus for 10 min. Time spent in ‘Drug paired’ compartment was monitored.

[2] = Morris water maze test (learning acquisition, memory consolidation, retention); format: in vivo, rats
Procedure: The Morris water maze test was conducted after repetitive apomorphine injections and post-conditioning. Water temperature was at room temperature, 21±1° C. The platform (10 cm×10 cm) was made of clear acrylic and was hidden 2 cm below the surface of water in a fixed location. Water was made opaque by adding milk to it.
During training phase, each rat was placed into the water facing the wall of the tank and allowed 120 sec to locate and climb onto the submerged platform. The rat was allowed to stay on the platform for 10 sec. […] After the training animals were tested three times.
Each rat was tested immediately after training. Learning acquisition was determined by recording the initial latency (IL; the time taken by each rat to relocate the hidden platform).
Rats were tested for memory consolidation 60 min post training. It was determined by recording the retention latency (RL; the time taken by each rat to locate the hidden platform 1 h after training). The cut off time for each session was 2 min.
Rats were tested for memory retention 24 hr post training session. Memory retention was determined by recording the retention latency (RL; the time taken by each rat to locate the hidden platform 24 hr post training). The cut off time for each session was 2 min.

[3] = Exploratory activity in novel environment of an open field; format: in vivo; settings: rats
Procedure: Open field consisted of a square area (76×76 cm) with walls 42 cm high. Floor of the apparatus was divided by lines into 25 squares of equal size. Experiment was conducted in a quiet room under white light. Animals were tested 24 hr post 1st and 6th apomorphine injection. Numbers of squares crossed with all four paws and latency to move from the central square were scored for 5 min.

[4] = Motor behavior (cage crossings) and % psychosis like effects during conditioning phase; format: in vivo; settings: rats
Procedure: as §1
Motor behavior was also monitored during conditioning phase. Animals confined to a compartment were moving across the compartment. Activity scores were counted as number of cage crossings for 10 min starting 5 min post injection.

[5] = buspirone 1 mg/kg co-administered with apomorphine 1 mg/kg, rats
[6] = buspirone co-injected animals (summary statement)
[7] = buspirone 1 mg/kg with apomorphine, rats
[8] = buspirone 1 mg/kg co-treated with apomorphine 1 mg/kg

Structure (SMILES): CN1CCc2cccc3c2[C@H]1Cc1ccc(O)c(O)c1-3 [apomorphine]
- Post-conditioning values of time spent in the drug paired compartment ([1]; apomorphine 1 mg/kg, repeated, vs pre-conditioning/saline, rats): much higher
- % reinforcement ([1]; apomorphine 1 mg/kg, rats): increased
- Memory consolidation (time taken to reach platform) ([2]; apomorphine vs saline treated animals, 60 min post training, rats): increase
- Memory retention (time taken to reach platform) ([2]; apomorphine vs saline treated animals, 24 hr post training, rats): increase
- Learning acquisition (time taken to reach platform) ([2]; apomorphine vs saline treated animals, tested immediately after training, rats): increase
- Exploratory activity in open field ([3]; apomorphine alone): increased
- Motor activities post repeated administration ([4]; apomorphine 1 mg/kg, repeated administration): increased
- Motor activities post single administration ([4]; apomorphine 1 mg/kg, single administration): increase
- % psychosis like effects ([4]; apomorphine 1 mg/kg): produced

Structure (SMILES): O=C1CC2(CCCC2)CC(=O)N1CCCCN1CCN(c2ncccn2)CC1 [buspirone]
- Effect on apomorphine-induced increases in post conditioning values of time spent in drug paired compartment [1, 5]: significantly attenuates
- Reinforcement effects of apomorphine [1, 5]: did not occur
- Addiction to apomorphine [1, 6]: reduced
- Effect on apomorphine-increased learning acquisition [2, 7]: further potentiated
- Effect on apomorphine-increased memory consolidation [2, 7]: further potentiated
- Effect on apomorphine-increased memory retention [2, 7]: further potentiated
- Memory enhancing effects of apomorphine [2, 6]: potentiated
- Effect on apomorphine-increased exploratory activity ([3]; buspirone 1 mg/kg, after 6th apomorphine injection): attenuated
- Effect on % psychosis like effects produced by apomorphine [4, 8]: attenuated
- Effect on apomorphine-increased motor activities post repeated administration [4, 8]: attenuated
